Measured values from paper PMC9868454, “Exploring novel targets of sitagliptin for type 2 diabetes mellitus: Network pharmacology, molecular docking, molecular dynamics simulation, and SPR approaches” (Frontiers in Endocrinology, 2023).

Biological target: angiotensin-converting enzyme 2 (ACE2) (Homo sapiens, UniProt Q9BYF1)
Test: SPR (Biacore T200, ACE2 coupled to CM5 chip, steady-state affinity fit)
Assay type: binding

angiotensin-converting enzyme 2 (ACE2), sequence (Q9BYF1 18-805): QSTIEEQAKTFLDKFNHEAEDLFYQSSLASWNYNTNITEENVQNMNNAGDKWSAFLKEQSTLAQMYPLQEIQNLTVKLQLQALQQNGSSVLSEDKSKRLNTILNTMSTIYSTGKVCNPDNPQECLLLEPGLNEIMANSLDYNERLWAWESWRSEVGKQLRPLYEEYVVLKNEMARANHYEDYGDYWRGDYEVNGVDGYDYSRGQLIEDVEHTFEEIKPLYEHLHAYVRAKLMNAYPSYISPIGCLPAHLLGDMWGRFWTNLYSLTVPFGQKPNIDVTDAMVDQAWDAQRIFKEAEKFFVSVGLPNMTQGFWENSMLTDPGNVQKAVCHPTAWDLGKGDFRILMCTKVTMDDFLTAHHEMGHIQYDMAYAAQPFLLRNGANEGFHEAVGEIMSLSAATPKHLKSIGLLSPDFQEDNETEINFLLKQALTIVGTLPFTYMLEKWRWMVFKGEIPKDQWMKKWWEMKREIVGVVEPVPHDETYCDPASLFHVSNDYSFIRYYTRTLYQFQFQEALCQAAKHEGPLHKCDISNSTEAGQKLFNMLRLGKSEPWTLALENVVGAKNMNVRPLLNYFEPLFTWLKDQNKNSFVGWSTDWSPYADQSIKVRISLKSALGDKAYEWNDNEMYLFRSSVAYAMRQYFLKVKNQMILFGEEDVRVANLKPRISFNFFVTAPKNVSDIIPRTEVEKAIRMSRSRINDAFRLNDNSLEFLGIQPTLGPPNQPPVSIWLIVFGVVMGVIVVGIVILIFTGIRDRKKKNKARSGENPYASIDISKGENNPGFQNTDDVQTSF

N[C@@H](CC(=O)N1CCn2c(nnc2C(F)(F)F)C1)Cc1cc(F)c(F)cc1F [sitagliptin]
Kd: 35.1 nM
